Experimental data as given in ChEMBL document CHEMBL4396891, “Recent update on anti-dengue drug discovery” (Eur J Med Chem, 2019).

Key:
dengue virus type 2 [1] = test: Antiviral activity against DENV2 infected in BHK-21 cells assessed as viral titer by plaque assay; assay type: functional, organism-based
Genome polyprotein [2] = target: T1, Genome polyprotein (dengue virus type 2, UniProt P29990); test: Inhibition of DENV2 NS2B-NS3 serine protease using Bz-Nle-Lys-Arg-Arg-AMC as substrate after 15 mins by fluorescence assay
Nonstructural protein 5 [3] = target: T2, Nonstructural protein 5 (Dengue virus, UniProt V5TFZ2); test: Inhibition of dengue virus NS5 RNA dependent RNA polymerase
Dengue virus [4] = test: Antiviral activity against dengue virus infected in HeLa cells assessed as reduction in viral propagation after 72 hrs by RT-qPCR analysis; assay type: functional, organism-based
dengue virus type 2 [5] = test: Antiviral activity against DENV2 infected in BHK-21 cells assessed as viral replication after 24 to 48 hrs by luciferase reporter gene assay; assay type: functional, organism-based
Nonstructural protein 5 [6] = target: T2, Nonstructural protein 5; test: Inhibition of His-tagged DENV2 NS5 RNA dependent RNA polymerase expressed in baculovirus infected sf9 cells; parameters: species or system dengue virus type 2
dengue virus type 2 [7] = test: Antiviral activity against DENV2; assay type: functional, organism-based
Nonstructural protein 5 [8] = target: T2, Nonstructural protein 5; test: Inhibition of His-tagged DENV2 NS5 RNA dependent RNA polymerase; parameters: species or system dengue virus type 2
dengue virus type 2 [9] = test: Antiviral activity against DENV2 infected in BHK-21 cells by MTTR assay; assay type: functional, organism-based
dengue virus type 2 [10] = test: Antiviral activity against DENV2 infected in BHK-21 cells assessed as reduction in viral production; assay type: functional, organism-based
dengue virus type 1 [11] = test: Antiviral activity against DENV1 FGA/89 infected in human Huh7.5 cells after 72 hrs; assay type: functional, organism-based; settings: FGA/89, Huh7.5, 72 h
dengue virus type 3 [12] = test: Antiviral activity against DENV3 97 infected in human Huh7.5 cells after 72 hrs; assay type: functional, organism-based; settings: Dengue virus, 97, Huh7.5, 72 h
dengue virus type 2 [13] = test: Antiviral activity against DENV2 ICC-265 infected in human Huh7.5 cells after 72 hrs; assay type: functional, organism-based; settings: ICC-265, Huh7.5, 72 h
dengue virus type 4 [14] = test: Antiviral activity against DENV4 TVP360 infected in human Huh7.5 cells after 72 hrs; assay type: functional, organism-based; settings: TVP360, Huh7.5, 72 h
Genome polyprotein [15] = target: T1, Genome polyprotein; test: Inhibition of His-tagged DENV2 NS2B-NS3 serine protease expressed in Escherichia coli BL21 using Boc-Gly-Arg-Arg-7-amino-4-methylcoumarin as substrate measured after 10 mins by fluorometric assay
dengue virus type 2 [16] = test: Antiviral activity against DENV2 New Guinea C infected in HEK293 cells assessed as reduction in viral infection after 48 hrs by focus forming assay; assay type: functional, organism-based; settings: HEK293, 48 h
Genome polyprotein [17] = target: T1, Genome polyprotein; test: Inhibition of DENV2 NS2B-NS3 serine protease expressed using Benzoyl-Nle-Lys-Arg-Arg-AMC as substrate measured preincubated for 3 mins followed by substrate addition by fluorescence assay
dengue virus type 2 [18] = test: Antiviral activity against DENV2 infected in BHK-21 cells assessed as viral replication; assay type: functional, organism-based
Dengue virus [19] = test: Antiviral activity against dengue virus; assay type: functional, organism-based
dengue virus type 2 [20] = test: Antiviral activity against DENV2 infected in BHK-21 cells after 72 hrs by plaque-forming assay; assay type: functional, organism-based; settings: BHK-21, 72 h
dengue virus type 2 [21] = test: Antiviral activity against DENV2 infected in BHK cells assessed as reduction in viral yield after 24 ro 48 hrs by luciferase reporter gene assay; assay type: functional, organism-based
[22] = target: Genome polyprotein (dengue virus type 2) (UniProt P29990); test: Inhibition of DENV2 NS2B-NS3 serine protease
dengue virus type 2 [23] = test: Antiviral activity against DENV2 infected in human Huh7 cells by qRT-PCR analysis; assay type: functional, organism-based; settings: Huh-7
dengue virus type 4 [24] = test: Antiviral activity against DENV4; assay type: functional, organism-based
dengue virus type 3 [25] = test: Antiviral activity against DENV3; assay type: functional, organism-based
dengue virus type 1 [26] = test: Antiviral activity against DENV1; assay type: functional, organism-based

T2 sequence (V5TFZ2 whole entry): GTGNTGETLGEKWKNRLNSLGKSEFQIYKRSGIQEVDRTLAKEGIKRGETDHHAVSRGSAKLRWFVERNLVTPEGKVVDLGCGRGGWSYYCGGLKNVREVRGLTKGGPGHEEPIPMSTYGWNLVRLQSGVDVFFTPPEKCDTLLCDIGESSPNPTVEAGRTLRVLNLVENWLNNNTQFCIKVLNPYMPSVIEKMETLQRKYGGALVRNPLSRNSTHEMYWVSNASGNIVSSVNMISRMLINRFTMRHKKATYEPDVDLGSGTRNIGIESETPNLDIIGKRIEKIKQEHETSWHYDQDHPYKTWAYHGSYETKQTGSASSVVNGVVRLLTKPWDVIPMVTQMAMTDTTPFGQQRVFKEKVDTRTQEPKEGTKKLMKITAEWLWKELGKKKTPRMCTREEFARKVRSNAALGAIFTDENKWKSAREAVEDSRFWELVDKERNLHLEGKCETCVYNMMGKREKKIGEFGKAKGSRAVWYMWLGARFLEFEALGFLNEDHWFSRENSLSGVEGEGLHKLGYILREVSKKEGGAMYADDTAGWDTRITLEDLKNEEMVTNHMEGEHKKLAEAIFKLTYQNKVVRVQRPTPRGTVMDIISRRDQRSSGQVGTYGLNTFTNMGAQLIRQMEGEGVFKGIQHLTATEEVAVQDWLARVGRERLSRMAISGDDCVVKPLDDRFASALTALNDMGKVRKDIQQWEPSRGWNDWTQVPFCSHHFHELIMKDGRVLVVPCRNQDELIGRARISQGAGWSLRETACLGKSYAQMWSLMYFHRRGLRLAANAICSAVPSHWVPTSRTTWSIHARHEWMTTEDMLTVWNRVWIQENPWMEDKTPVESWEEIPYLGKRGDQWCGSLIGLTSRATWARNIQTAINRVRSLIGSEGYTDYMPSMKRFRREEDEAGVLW

SMILES: CCN(CC)CCNC(=O)c1c(C)[nH]c(/C=C2\C(=O)Nc3ccc(F)cc32)c1C [SUNITINIB]
- EC50 (dengue virus type 2 [1]): 1960 nM

SMILES: O=C1c2ccccc2C(=O)N1c1ccc(S(=O)(=O)Nc2cccc3ccccc23)cc1
- IC50 (Genome polyprotein [2]): 122 µM

SMILES: C[C@@H]1O[C@@H](Oc2c(-c3ccc(O)c(O)c3)oc3cc(O)cc(O)c3c2=O)[C@H](O)[C@H](O)[C@H]1O [QUERCITRIN]
- IC50 (Nonstructural protein 5 [3]): 1700 to 2100 nM

SMILES: CCN(CC)Cc1ccc(C(=O)N(CCc2ccccc2OC)[C@@H]2CCNC2)cc1
- IC50 (Dengue virus [4]): 36.5 µM
- IC90 (Dengue virus [4]): 35.5 µM

SMILES: CCN(CC)Cc1cc(Nc2ccnc3cc(Cl)ccc23)ccc1O [AMODIAQUINE]
- IC50 (dengue virus type 2 [5]): 1080 nM
- IC90 (dengue virus type 2 [5]): 2690 nM

SMILES: CCOC(=O)c1cnn(-c2ccccc2)c1N(S(=O)(=O)c1ccc([N+](=O)[O-])cc1)S(=O)(=O)c1ccc([N+](=O)[O-])cc1
- EC50 (Nonstructural protein 5 [6]): 13 nM
- EC50 (dengue virus type 2 [7]): 5700 nM
- EC50 (Nonstructural protein 5 [8]): 4.9 µM

SMILES: C/C=C(\C)C(=O)O[C@@H]1CC[C@]2(C)[C@H]3CC[C@@]4(C)[C@@H]([C@@H]5C[C@H]([C@@H]6OC6(C)C)O[C@H]5O)CC[C@]4(C)C3=CC[C@H]2C1(C)C
- EC50 (dengue virus type 2 [9]): 3000 nM

SMILES: Cc1cc(N2CCN(C)CC2)ccc1NC(=O)c1c2c(nc3ccccc13)CCN(Cc1ccccc1)C2
- EC50 (dengue virus type 2 [10]): 5 µM

SMILES: CCCCCCCCCCCCNCCNC(=O)C[C@@]1(O)C[C@@H](O)[C@@H]2OC(C)(C)O[C@@H]2C1
- IC50 (dengue virus type 1 [11]): 6.9 to 10.4 µM
- IC50 (dengue virus type 3 [12]): 6.9 to 10.4 µM
- IC50 (dengue virus type 2 [13]): 6.9 to 10.4 µM
- IC50 (dengue virus type 4 [14]): 6.9 to 10.4 µM

SMILES: O=C(O)c1cc2sc(NC(=O)c3ccccc3Sc3ccc(C(F)(F)F)cc3)nc2cc1O
- IC50 (Genome polyprotein [15]): 66 µM

SMILES: Nc1c(C(=O)Nc2nc(-c3ccccc3)cs2)sc2nc3c(cc12)CN(c1ccccc1)CC3
- IC50 (dengue virus type 2 [16]): 25 nM

SMILES: Cc1ccc(C(=O)c2cc(O)c(O)c([N+](=O)[O-])c2)cc1 [TOLCAPONE]
- IC50 (Genome polyprotein [17]): 640 to 1150 nM
- EC50 (dengue virus type 2 [18]): 2.29 µM

SMILES: O=C1C=C2CCN3Cc4cc5c(cc4[C@H]([C@@H]1O)[C@@H]23)OCO5
- EC50 (Dengue virus [19]): 0.4 to 1.8 µM

SMILES: CC(C)C[C@@H]1NC(=O)[C@@H]2C[C@@H](O)CN2C1=O
- EC50 (Dengue virus [19]): 11.2 to 21.2 µM

SMILES: CN1CCN(CCCN2c3ccccc3Sc3ccc(Cl)cc32)CC1 [PROCHLORPERAZINE]
- EC50 (dengue virus type 2 [7]): 88 nM

SMILES: CCCCCCCCCCCCCCCC[N+](CC)(CO)CO
- EC50 (dengue virus type 2 [20]): 1030 nM

SMILES: O[C@@H](c1cc(C(F)(F)F)nc2c(C(F)(F)F)cccc12)[C@H]1CCCCN1 [(S,R)-MEFLOQUINE]
- EC50 (dengue virus type 2 [21]): 3.22 µM

SMILES: CCCCCCCCCCCCCCNCCNC(=O)C[C@]1(O)C[C@@H](O)[C@@H](O)[C@H](O)C1
- IC50 (dengue virus type 1 [11]): 6.5 to 10.8 µM
- IC50 (dengue virus type 3 [12]): 6.5 to 10.8 µM
- IC50 (dengue virus type 2 [13]): 6.5 to 10.8 µM
- IC50 (dengue virus type 4 [14]): 6.5 to 10.8 µM

SMILES: CC(C)=CCC/C(C)=C/C=O [CITRAL]
- IC50 (dengue virus type 2 [7]): 31 µM

SMILES: CCCCC1C(C(=O)CC)C(c2ccccc2)CCN1C(=O)OC(C)(C)C (stereo unspecified)
- EC50 (dengue virus type 2 [7]): 3200 nM
- INH [22]: 214 µM

SMILES: CNCCC(Oc1ccc(C(F)(F)F)cc1)c1ccccc1 (stereo unspecified) [FLUOXETINE]
- IC50 (dengue virus type 2 [23]): 380 nM

SMILES: O=C1N[C@@H](Cc2ccccc2)C(=O)N2C[C@H](O)C[C@@H]12
- EC50 (Dengue virus [19]): 11.2 to 21.2 µM

SMILES: Cc1ccc(C2=NC(=O)/C(=C/c3cc(O)c(O)c(Br)c3)S2)cc1
- IC50 (Genome polyprotein [17]): 2940 to 4060 nM
- EC50 (dengue virus type 2 [18]): 6.9 µM

SMILES: CC(=O)O[C@@H]1C(=O)C=C2CCN3Cc4cc5c(cc4[C@H]1[C@@H]23)OCO5
- EC50 (Dengue virus [19]): 0.4 to 1.8 µM

SMILES: Oc1cccc(Nc2nc(NCc3ccc(-c4ccccc4)cc3)nc3nc[nH]c23)c1
- EC50 (dengue virus type 4 [24]): 1380 to 2190 nM
- EC50 (dengue virus type 2 [7]): 2800 nM
- EC50 (dengue virus type 3 [25]): 1380 to 2190 nM
- EC50 (dengue virus type 1 [26]): 1380 to 2190 nM
